PMC9790248, “Effects of CYP3A Inhibition, CYP3A Induction, and Gastric Acid Reduction on the Pharmacokinetics of Ripretinib, a Switch Control KIT Tyrosine Kinase Inhibitor” (Clinical Pharmacology in Drug Development, 2022)
Values joined by “and” are separate entries in the source; they are usually repeats but may differ in a detail not shown here. Identical values can stand only once. Like-named read-outs stand apart in the source and are kept apart here.

Columns and labels:
[1] = Safety assessment (TEAEs), itraconazole study
Method: On days 8 through 10, participants received itraconazole 200 mg once daily with a meal or snack. On day 11, participants received ripretinib 50 mg 1 hour after itraconazole 200 mg under fasting conditions. On days 12 through 17, participants received itraconazole 200 mg once daily with a meal or snack. […] Safety was assessed throughout and a follow‐up safety phone call was conducted at day 24 or 7 days after the last dose of study drug if participants withdrew early.
TEAEs were defined as adverse events (AEs) that occurred/worsened during or after administration of any of the study drugs. Relationship to study drug was assessed by the investigator. The safety population included all enrolled participants who received ≥1 dose of ripretinib.
Participant demographics, clinical characteristics, and PK parameters were summarized using descriptive statistics. Safety data were summarized as n (%). […] PK parameters were calculated using Phoenix® WinNonlin® v7.0 or higher (Certara USA Inc.).

[2] = Safety assessment (TEAEs), pantoprazole study; assay type: in vivo, human
Method: Participants were confined to the study center on days 1 through 16. On day 1, participants received an oral dose of ripretinib 50 mg under fasting conditions (Figure 1C). On days 8 through 13, participants received pantoprazole 40 mg once daily. On day 14, participants received pantoprazole 40 mg once daily and ripretinib 50 mg simultaneously under fasting conditions.
Relationship to study drug was assessed by the investigator.
Safety data were summarized as n (%).

[3] = Itraconazole (strong CYP3A inhibitor) DDI study, plasma pharmacokinetics; assay type: in vivo, human; details: for AUC(0-t) / AUC(0-inf) / Cmax / half-life / Tmax: both sexes, human, plasma; for AUC(0-t) / AUC(0-inf) / Cmax / half-life: po; for AUC(0-t) / AUC(0-inf) / Cmax / half-life / Tmax / CL/F, arithmetic mean (SD) / CL/F, geometric mean (CV%): fasting; for Tmax: read-out: tmax, median (min, max); for Time postdose that mean plasma concentration remained above the LLOQ: LLOQ 2.00 ng/mL
Method: All studies were phase 1, fixed‐sequence, open‐label studies in healthy volunteers. One study consisted of two separate cohorts examining DDIs between ripretinib and itraconazole or pantoprazole, respectively; the rifampin study was conducted separately. Studies and cohorts were enrolled independently. Eligible participants were healthy male or female adults between 18 and 55 years of age with a body mass index (BMI) of ≥18.5 and ≤30 kg/m^2. Good health was confirmed by a physician and based on medical evaluation with no significant findings, including medical history, physical examination, laboratory tests, and 12‐lead electrocardiogram (ECG) at screening and day −1. Participants were required to abstain from alcohol, marijuana, grapefruit, Seville oranges, tangelo, star fruit, and grapefruit‐like products 14 days prior to and during the study. Participants with a positive breath test for Helicobacter pylori were excluded from the pantoprazole study.
Ripretinib and its active metabolite DP‐5439 plasma concentrations were measured using a validated high‐performance liquid chromatography (HPLC) with tandem mass spectrometry (LC‐MS/MS) assay with a lower limit of quantification (LLOQ) of 2.00 ng/mL for both analytes. In this method, the analytes (ripretinib and DP‐5439) and the internal standards (ISs; DCC‐2618‐d5 and DP‐5439‐d5) were released from human plasma samples by protein precipitation. The supernatants were chromatographed using reversed‐phase HPLC with a Betasil® C8 analytical column with deionized water (0.1% formic acid) and 40/60 acetonitrile/acetone (0.1% formic acid) as the mobile phase. Mass spectrometric detection was performed on a triple quadrupole tandem mass spectrometer API 5000 or API 5500 (Applied Biosystems/MDS Sciex, Toronto, Canada) equipped with a turbo ion spray source operated in the positive ionization mode. The source parameters were collision energy 40 eV, collision gas 6 psi, Nebulizer Gas 1, Turbo IonSpray Gas 2, and curtain gas 35 psi. Quantification was obtained by using multiple reaction monitoring mode of the transitions of mass to charge ratio [m/z] 510.3 →417 for DCC‐2618 (ripretinib), m/z 496.2 →403 for DP‐5439, m/z 515.3 →417 for DCC‐2618‐d5, and m/z 501.2 →403 for DP‐5439‐d5.
Plasma concentration–time data were analyzed using noncompartmental methods using Phoenix® WinNonlin® v7.0 (Certara USA Inc., Princeton, New Jersey). Derived PK parameters included area under the concentration–time curve from time 0 to time t (AUC0–t) and area under the concentration–time curve from 0 to infinity (AUC0–∞), maximum observed concentration (Cmax), time of maximum observed concentration (tmax), elimination half‐life (t1/2), apparent systemic clearance, and for DP‐5439, metabolite to parent ratio for AUC0–t, AUC0–∞, and Cmax.
The PK population included all participants who received ≥1 dose ripretinib and had ≥1 nonmissing PK concentration in plasma reported for ripretinib or DP‐5439. The PK evaluable set included all participants in the PK population who had ripretinib PK parameters on both ripretinib dosing days, bioanalytical results for ≥75% of planned analyses, no missed ripretinib doses and ≤2 missed perpetrator (itraconazole, pantoprazole, or rifampin) doses before the second dosing day of ripretinib, and no emesis within 8 hours of ripretinib administration. […]

CYP2C19 = CYP2C19 (Homo sapiens, UniProt P33261); experiment: Incubation with recombinant human CYPs, substrate disappearance; assay type: in vitro ADME; details: data on file
Chain of CYP2C19 (P33261 whole entry, canonical isoform): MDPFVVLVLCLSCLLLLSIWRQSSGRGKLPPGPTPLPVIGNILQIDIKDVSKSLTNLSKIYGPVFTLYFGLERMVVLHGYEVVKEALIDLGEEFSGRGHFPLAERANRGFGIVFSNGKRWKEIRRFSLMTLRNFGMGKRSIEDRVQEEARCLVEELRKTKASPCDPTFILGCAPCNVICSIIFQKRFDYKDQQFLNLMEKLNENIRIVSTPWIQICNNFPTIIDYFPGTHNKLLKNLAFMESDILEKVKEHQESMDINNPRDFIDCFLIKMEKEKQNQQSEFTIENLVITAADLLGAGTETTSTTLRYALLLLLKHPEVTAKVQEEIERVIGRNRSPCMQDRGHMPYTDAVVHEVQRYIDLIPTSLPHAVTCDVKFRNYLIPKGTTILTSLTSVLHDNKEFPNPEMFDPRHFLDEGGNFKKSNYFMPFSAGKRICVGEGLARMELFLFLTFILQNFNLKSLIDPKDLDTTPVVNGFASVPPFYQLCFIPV
Method: (§1) In vitro studies with recombinant human cytochrome P450 isoforms (CYPs) and human liver microsomes (with chemical inhibitors) indicate that CYP3A4/5 plays a major role in the metabolism of ripretinib (data on file). When incubated with a panel of recombinant human CYPs, ripretinib (0.1 or 1 μM) disappeared in the presence of CYP3A4 (87.8%–100%), CYP2D6 (97.7%–100%), CYP2C8 (71.2% and 18.9%, respectively), and CYP2C19 (15.7% and 6.7%, respectively).

CYP3A4 = CYP3A4 (Homo sapiens, UniProt P08684); experiment: as above; assay type: in vitro ADME; details: ripretinib 0.1 or 1 μM, data on file
Chain of CYP3A4 (P08684 whole entry): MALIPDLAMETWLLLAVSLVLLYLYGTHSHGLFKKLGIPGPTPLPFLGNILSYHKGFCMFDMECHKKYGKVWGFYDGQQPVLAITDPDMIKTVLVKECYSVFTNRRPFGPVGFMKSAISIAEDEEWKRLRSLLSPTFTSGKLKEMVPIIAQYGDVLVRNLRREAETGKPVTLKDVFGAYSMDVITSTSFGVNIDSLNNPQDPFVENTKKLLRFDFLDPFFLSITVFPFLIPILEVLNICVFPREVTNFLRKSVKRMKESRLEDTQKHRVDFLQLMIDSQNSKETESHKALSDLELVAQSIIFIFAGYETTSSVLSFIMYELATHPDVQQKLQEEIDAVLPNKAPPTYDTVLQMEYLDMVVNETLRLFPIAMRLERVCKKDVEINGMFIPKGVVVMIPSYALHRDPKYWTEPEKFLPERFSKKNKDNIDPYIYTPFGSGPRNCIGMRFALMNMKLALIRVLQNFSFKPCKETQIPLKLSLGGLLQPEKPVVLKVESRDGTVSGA
Method: as §1

[4] = itraconazole study: ripretinib 50 mg alone and with itraconazole 200 mg QD, safety population N = 20
[5] = ripretinib 50 mg single oral dose + itraconazole 200 mg QD, healthy participants (N = 20)
[6] = ripretinib 50 mg single oral dose alone, healthy participants (itraconazole study, N = 20)
[7] = ripretinib 50 mg with itraconazole 200 mg QD relative to ripretinib alone

With `CCn1c(=O)c(-c2cc(NC(=O)Nc3ccccc3)c(F)cc2Br)cc2cnc(NC)cc21` [Ripretinib] the “Deaths and serious AEs” value ([1]; itraconazole study, N = 20) was “No deaths occurred and no participants experienced serious AEs”, the “Number of TEAEs attributed to study drug” value ([1]; itraconazole study, N = 20) was 36 and the “Participants with TEAEs attributed to study drug per the investigator” value ([1]; itraconazole study, N = 20) was 13 (65%) n (%). For the same molecule, the “Total number of TEAEs” value ([1]; itraconazole study, N = 20) was 44, the “Participants reporting any TEAE” value [1, 4] was 14 (70.0) n (%) and the “TEAE: ALT increase” value [1, 4] was 1 (5.0) n (%). For the same molecule, the “TEAE: AST increase” value [1, 4] was 0 n (%), the “TEAE: Abdominal discomfort” value [1, 4] was 0 n (%) and the “TEAE: Abdominal pain” value [1, 4] was 3 (15.0) n (%). The “TEAE: Abdominal pain lower” value [1, 4] was 1 (5.0) n (%), the “TEAE: Amylase increase” value [1, 4] was 4 (20.0) n (%) and the “TEAE: Constipation” value [1, 4] was 1 (5.0) n (%). The “TEAE: Diarrhea” value [1, 4] was 4 (20.0) n (%), the “TEAE: Fatigue” value [1, 4] was 1 (5.0) n (%) and the “TEAE: Headache” value [1, 4] was 2 (10.0) n (%). The “TEAE: Lipase increase” value [1, 4] was 5 (25.0) n (%), the “TEAE: Nausea” value [1, 4] was 2 (10.0) n (%) and the “TEAE: Vomiting” value [1, 4] was 1 (5.0) n (%). For the same molecule, the “Participants reporting any TEAE” value ([1]; itraconazole study: ripretinib 50 mg alone and with itraconazole 200 mg QD, safety population N = 20, listed as ripretinib) was 14 (70%) n (%), the “Number of TEAEs attributed to study drug” value ([2]; human, in vivo, 28 days) was 42 and the “Participants with TEAEs attributed to study drug per the investigator” value ([2]; human, in vivo, 28 days) was 19 (76%) n (%). For the same molecule, the “Total number of TEAEs” value ([2]; human, in vivo, 28 days) was 63, the “Deaths and serious AEs” value ([2]; pantoprazole study, N = 25) was “No deaths occurred and no participants experienced SAEs” and the AUC(0-t) ([3]; 50 mg, ripretinib 50 mg single oral dose alone, healthy participants (itraconazole study, N = 20), read-out: AUC0–t, arithmetic mean (SD)) was 4400 ng·h/mL. For the same molecule, the AUC(0-t) ([3]; 50 mg, ripretinib 50 mg single oral dose alone, healthy participants (itraconazole study, N = 20), read-out: AUC0–t, geometric mean (CV%)) was 4060 ng·h/mL, the AUC(0-inf) ([3]; 50 mg, ripretinib 50 mg single oral dose alone, healthy participants (itraconazole study, N = 20), read-out: AUC0–∞, arithmetic mean (SD)) was 4500 ng·h/mL and the AUC(0-inf) ([3]; 50 mg, ripretinib 50 mg single oral dose alone, healthy participants (itraconazole study, N = 20), read-out: AUC0–∞, geometric mean (CV%)) was 4180 ng·h/mL. For the same molecule, the Cmax ([3]; 50 mg, ripretinib 50 mg single oral dose alone, healthy participants (itraconazole study, N = 20), read-out: Cmax, arithmetic mean (SD)) was 321 ng/mL, the Cmax ([3]; 50 mg, ripretinib 50 mg single oral dose alone, healthy participants (itraconazole study, N = 20), read-out: Cmax, geometric mean (CV%)) was 291 ng/mL and the half-life ([3]; 50 mg, ripretinib 50 mg single oral dose alone, healthy participants (itraconazole study, N = 20), read-out: t1/2, arithmetic mean (SD) (converted)) was 17 h. It also gave a half-life ([3]; 50 mg, ripretinib 50 mg single oral dose alone, healthy participants (itraconazole study, N = 20), read-out: t1/2, geometric mean (CV%) (converted)) of 16 h, an AUC(0-t) ([3]; ripretinib 50 mg single oral dose + itraconazole 200 mg QD, healthy participants (N = 20), read-out: AUC0–t, arithmetic mean (SD)) of 8900 ng·h/mL and an AUC(0-t) ([3]; ripretinib 50 mg single oral dose + itraconazole 200 mg QD, healthy participants (N = 20), read-out: AUC0–t, geometric mean (CV%)) of 8060 ng·h/mL. It also gave an AUC(0-inf) ([3]; ripretinib 50 mg single oral dose + itraconazole 200 mg QD, healthy participants (N = 20), read-out: AUC0–∞, arithmetic mean (SD)) of 9190 ng·h/mL, an AUC(0-inf) ([3]; ripretinib 50 mg single oral dose + itraconazole 200 mg QD, healthy participants (N = 20), read-out: AUC0–∞, geometric mean (CV%)) of 8310 ng·h/mL and a Cmax ([3]; ripretinib 50 mg single oral dose + itraconazole 200 mg QD, healthy participants (N = 20), read-out: Cmax, arithmetic mean (SD)) of 404 ng/mL. It also gave a Cmax ([3]; ripretinib 50 mg single oral dose + itraconazole 200 mg QD, healthy participants (N = 20), read-out: Cmax, geometric mean (CV%)) of 395 ng/mL, a half-life ([3]; ripretinib 50 mg single oral dose + itraconazole 200 mg QD, healthy participants (N = 20), read-out: t1/2, arithmetic mean (SD) (converted)) of 27 h and a half-life ([3]; ripretinib 50 mg single oral dose + itraconazole 200 mg QD, healthy participants (N = 20), read-out: t1/2, geometric mean (CV%) (converted)) of 24 h. For the same molecule, the Tmax [3, 5] was 4 h, the Tmax [3, 6] was 3 h and the “Increase in exposure with daily itraconazole coadministration” value ([3]; ripretinib 50 mg + itraconazole 200 mg QD vs ripretinib alone) was “up to 99%”. The “Time postdose that mean plasma concentration remained above the LLOQ” value ([3]; ripretinib 50 mg alone (itraconazole study)) was 96 h, the “CL/F, arithmetic mean (SD)” value [3, 5] was 7 (3) L/h and the “CL/F, geometric mean (CV%)” value [3, 5] was 6 (48) L/h. For the same molecule, the “CL/F, arithmetic mean (SD)” value [3, 6] was 13 (5) L/h, the “CL/F, geometric mean (CV%)” value [3, 6] was 12 (42) L/h and the “Geometric LS mean ratio of AUC0–t” value [3, 7] was 198%. The “Geometric LS mean ratio of AUC0–∞ (90% CI)” value [3, 7] was 199 (174–227) %, the “Geometric LS mean ratio of Cmax (90% CI)” value [3, 7] was 136% and 136 (116–159) % and the “Geometric LS mean ratio of AUC0–∞ (90% CI)” value ([3]; ripretinib 50 mg with itraconazole 200 mg QD relative to ripretinib alone, listed as ripretinib) was 199%. For the same molecule, the “Time postdose that mean plasma concentration remained above the LLOQ” value ([3]; ripretinib 50 mg with itraconazole) was “up to 168 hours”, the Substrate disappearance (CYP2C19; ripretinib 0.1 μM) was 15.7% and the Substrate disappearance (CYP2C19; ripretinib 1 μM) was 6.7%. The Substrate disappearance (CYP3A4) was 87.8%–100%.
